Earlier results, collected in patent US20060083700A1, “Use of a novel phytonutrient rich bioactive concentrate (Ri-ActiveTM) for the prevention and treatment of cardiovascular disease, diabetes and other health disorders” (NaturRi LLC, priority 2004, published 2006).

Test system: hypercholesterolemic subjects
Conditions: 28 subjects, phases of 35 days

Structure (SMILES): CC[C@H](C)C(=O)O[C@H]1C[C@@H](C)C=C2C=C[C@H](C)[C@H](CC[C@@H]3C[C@@H](O)CC(=O)O3)[C@H]21 [lovastatin]
- reduction of LDL-C: 15%
- reduction of serum total cholesterol: 13%
